Counter-ions that a name gives are not always drawn. Like-named read-outs stand apart in the source and are kept apart here.
Experiments:
[1] = system: iCell endothelial cells (human iPSC-derived ECs); experiment: Tube formation (tubulogenesis) assay in iCell endothelial cells, 18 h; format: cell-based; conditions: Homo sapiens, Endothelial cell, iPSC-EC tube formation, 18 hr; for activity at 0.1 µM: 0.10 µM; for minimal effective concentration: top concentration 100.00 µM
In short: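 iCell ECs (passages 1–5) seeded 7,500 cells/well on reduced-growth-factor Geltrex in starvation medium, exposed overnight at 37°C to compounds in triplicate concentration–response (0.5% DMSO vehicle). Calcein AM staining, 4× imaging, angiogenesis image analysis; readouts normalized to vehicle, four-parameter logistic fit, POD at 1 SD of vehicle; 100 μM assigned NOAEL if no response.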

[2] = system: iCell endothelial cells (human iPSC-derived ECs); experiment: High-content imaging cytotoxicity in iCell endothelial cells, 24 h; format: cell-based; conditions: Homo sapiens, Endothelial cell, iPSC-EC, 24 hr; for viability at 0.1 µM / activity at 0.1 µM: 0.10 µM; for minimal effective concentration: top concentration 100.00 µM
In short: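 Human iPSC-derived endothelial cells (passages 1–5) were grown to a fibronectin-coated monolayer, then exposed 24 h at 37 °C with 0.5% DMSO vehicle. Staining was Hoechst 33342, MitoTracker Orange and calcein AM, read by high-content imaging. Point of departure came from 4-parameter logistic fits, with a 1-SD vehicle cutoff and 100 µM as the top concentration.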

[3] = 0.00 µM control = 100.00, read-out: endo.mtl.18hr
[4] = 0.00 µM control = 100.00, read-out: endo.tlps.18hr
[5] = 0.00 µM control = 100.00, read-out: endo.tta.18hr
[6] = 0.00 µM control = 100.00, read-out: endo.ttl.18hr
[7] = 0.00 µM control = 100.00, read-out: endo.cyto.24hr
[8] = 0.00 µM control = 100.00, read-out: endo.mito.24hr
[9] = 0.00 µM control = 100.00, read-out: endo.mitoint.24hr
[10] = 0.00 µM control = 100.00, read-out: endo.nma.24hr
[11] = 0.00 µM control = 100.00, read-out: endo.tc.24hrs
[12] = read-out: endo.mitoint.24hr POD

O=S(=O)(O)Oc1ccc(-c2cccc(Cl)c2)cc1Cl [4-yl PCB 11 sulfate]
activity at 0.01 µM [1, 3]: 107%
activity at 0.01 µM [1, 4]: 113%
activity at 0.01 µM [1, 5]: 174%
activity at 0.01 µM [1, 6]: 179%
activity at 0.1 µM [1, 3]: 122%
activity at 0.1 µM [1, 4]: 98.8%
activity at 0.1 µM [1, 5]: 119%
activity at 0.1 µM [1, 6]: 124%
activity at 1 µM [1, 3]: 113%
activity at 1 µM [1, 4]: 103%
activity at 1 µM [1, 5]: 124%
activity at 1 µM [1, 6]: 128%
activity at 10 µM [1, 3]: 94.3%
activity at 10 µM [1, 4]: 82.5%
activity at 10 µM [1, 5]: 91.7%
activity at 10 µM [1, 6]: 93.7%
activity at 100 µM [1, 3]: 68.5%
activity at 100 µM [1, 4]: 27.8%
activity at 100 µM [1, 5]: 26.5%
activity at 100 µM [1, 6]: 25.6%
minimal effective concentration ([1]; read-out: endo.mtl.18hr POD): 25.3 µM
minimal effective concentration ([1]; read-out: endo.tlps.18hr POD): 12.7 µM
minimal effective concentration ([1]; read-out: endo.tta.18hr POD): 21 µM
minimal effective concentration ([1]; read-out: endo.ttl.18hr POD): 25.6 µM
viability at 0.01 µM [2, 7]: 96.1%
activity at 0.01 µM [2, 8]: 96.2%
activity at 0.01 µM [2, 9]: 99.7%
activity at 0.01 µM [2, 10]: 103%
viability at 0.01 µM [2, 11]: 96.1%
viability at 0.1 µM [2, 7]: 102%
activity at 0.1 µM [2, 8]: 101%
activity at 0.1 µM [2, 9]: 90.5%
activity at 0.1 µM [2, 10]: 102%
viability at 0.1 µM [2, 11]: 102%
viability at 1 µM [2, 7]: 98%
activity at 1 µM [2, 8]: 97.8%
activity at 1 µM [2, 9]: 90.8%
activity at 1 µM [2, 10]: 103%
viability at 1 µM [2, 11]: 98%
viability at 10 µM [2, 7]: 104%
activity at 10 µM [2, 8]: 104%
activity at 10 µM [2, 9]: 87.3%
activity at 10 µM [2, 10]: 98.8%
viability at 10 µM [2, 11]: 104%
viability at 100 µM [2, 7]: 98.5%
activity at 100 µM [2, 8]: 98.6%
activity at 100 µM [2, 9]: 84.2%
activity at 100 µM [2, 10]: 99.3%
viability at 100 µM [2, 11]: 98.5%
minimal effective concentration ([2]; read-out: endo.cyto.24hr POD): 100 µM
minimal effective concentration ([2]; read-out: endo.mito.24hr POD): 100 µM
minimal effective concentration [2, 12]: 100 µM
minimal effective concentration ([2]; read-out: endo.nma.24hr POD): 100 µM
minimal effective concentration ([2]; read-out: endo.tc.24hrs POD): 100 µM

O=S(=O)(O)Oc1cc(Cl)c(-c2cc(Cl)ccc2Cl)cc1Cl [4-yl PCB 52 sulfate]
activity at 0.01 µM [1, 3]: 116%
activity at 0.01 µM [1, 4]: 87.8%
activity at 0.01 µM [1, 5]: 122%
activity at 0.01 µM [1, 6]: 129%
activity at 0.1 µM [1, 3]: 108%
activity at 0.1 µM [1, 4]: 115%
activity at 0.1 µM [1, 5]: 115%
activity at 0.1 µM [1, 6]: 119%
activity at 1 µM [1, 3]: 109%
activity at 1 µM [1, 4]: 108%
activity at 1 µM [1, 5]: 112%
activity at 1 µM [1, 6]: 119%
activity at 10 µM [1, 3]: 73.9%
activity at 10 µM [1, 4]: 46.2%
activity at 10 µM [1, 5]: 70%
activity at 10 µM [1, 6]: 71.1%
activity at 100 µM [1, 3]: 46.8%
activity at 100 µM [1, 4]: 10.1%
activity at 100 µM [1, 5]: 0.18%
activity at 100 µM [1, 6]: 0.34%
minimal effective concentration ([1]; read-out: endo.mtl.18hr POD): 7.44 µM
minimal effective concentration ([1]; read-out: endo.tlps.18hr POD): 5.74 µM
minimal effective concentration ([1]; read-out: endo.tta.18hr POD): 8.83 µM
minimal effective concentration ([1]; read-out: endo.ttl.18hr POD): 9.64 µM
viability at 0.01 µM [2, 7]: 99.1%
activity at 0.01 µM [2, 8]: 98.6%
activity at 0.01 µM [2, 9]: 93.7%
activity at 0.01 µM [2, 10]: 105%
viability at 0.01 µM [2, 11]: 99.1%
viability at 0.1 µM [2, 7]: 92.5%
activity at 0.1 µM [2, 8]: 92.7%
activity at 0.1 µM [2, 9]: 90.1%
activity at 0.1 µM [2, 10]: 105%
viability at 0.1 µM [2, 11]: 92.5%
viability at 1 µM [2, 7]: 95.5%
activity at 1 µM [2, 8]: 96.1%
activity at 1 µM [2, 9]: 96.9%
activity at 1 µM [2, 10]: 102%
viability at 1 µM [2, 11]: 95.5%
viability at 10 µM [2, 7]: 104%
activity at 10 µM [2, 8]: 103%
activity at 10 µM [2, 9]: 82.8%
activity at 10 µM [2, 10]: 99.1%
viability at 10 µM [2, 11]: 104%
viability at 100 µM [2, 7]: 71.2%
activity at 100 µM [2, 8]: 66.7%
activity at 100 µM [2, 9]: 92.6%
activity at 100 µM [2, 10]: 104%
viability at 100 µM [2, 11]: 71.4%
minimal effective concentration ([2]; read-out: endo.cyto.24hr POD): 41.2 µM
minimal effective concentration ([2]; read-out: endo.mito.24hr POD): 41.2 µM
minimal effective concentration [2, 12]: 100 µM
minimal effective concentration ([2]; read-out: endo.nma.24hr POD): 100 µM
minimal effective concentration ([2]; read-out: endo.tc.24hrs POD): 50.3 µM
